One compound from paper PMC6872814, “Functional interactions between nitrite reductase and nitric oxide reductase from Paracoccus denitrificans” (Scientific Reports, 2019) can be followed below.

The experiment addresses T1, cNOR (c-type nitric oxide reductase, NorB and NorC) (Paracoccus denitrificans, UniProt A1B4X6+Q51662).
T1 construct: gene Pden_2483; NorBC two-subunit complex, plasmid pNOREX in E. coli JM109 with pEC86, DDM-solubilised and purified; reconstituted in liposomes for the Km
T1 sequence (A1B4X6 1-462): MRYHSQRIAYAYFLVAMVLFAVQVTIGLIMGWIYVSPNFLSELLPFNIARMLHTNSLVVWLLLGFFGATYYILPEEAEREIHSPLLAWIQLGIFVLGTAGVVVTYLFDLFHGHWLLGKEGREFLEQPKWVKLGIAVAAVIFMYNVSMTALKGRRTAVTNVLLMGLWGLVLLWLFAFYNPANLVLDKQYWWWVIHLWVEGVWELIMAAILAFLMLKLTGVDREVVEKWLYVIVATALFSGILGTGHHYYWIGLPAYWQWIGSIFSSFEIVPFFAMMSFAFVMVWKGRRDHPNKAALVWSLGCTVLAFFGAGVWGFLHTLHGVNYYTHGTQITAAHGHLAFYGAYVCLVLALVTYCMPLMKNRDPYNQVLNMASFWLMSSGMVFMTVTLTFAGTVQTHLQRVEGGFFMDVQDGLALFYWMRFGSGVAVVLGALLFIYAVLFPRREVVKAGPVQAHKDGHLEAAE
T1 sequence (Q51662 2-150): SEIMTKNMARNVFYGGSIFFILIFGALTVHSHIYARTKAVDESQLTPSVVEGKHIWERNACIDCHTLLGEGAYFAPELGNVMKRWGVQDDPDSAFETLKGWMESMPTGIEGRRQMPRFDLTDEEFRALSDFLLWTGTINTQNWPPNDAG
Put plainly: Clark-type NO electrode, inhibition of NO reduction, data not shown. It counts as biochemical. The note with it: inhibitor at high (mM) concentrations; 50 mM HEPES pH 7.0, 50 mM KCl.

With `O=NO` [nitrite], the “Clark-type NO electrode, inhibition of NO reduction, data not shown” value is “For nitrite, we see that it can inhibit cNOR activity, but only at high (mM)”.
